Data published in ChEMBL document CHEMBL1909046, “DrugMatrix in vitro pharmacology data”.

Key:
Glycine receptor = Glycine receptor (Rattus norvegicus, UniProt P22771+P24524+P07727+P20781); type: cell membranes, Wistar, Spinal cord, Membrane; note: in other assays of this panel Not Active means under 50% inhibition at 10 µM
[1] = target: Sigma non-opioid intracellular receptor 1 (Homo sapiens, UniProt Q99720); experiment: DRUGMATRIX: Sigma1 radioligand binding (ligand: [3H] Haloperidol); type: cell membranes, Jurkat, Membrane; details: Not Active = under 50% inhibition at 10 µM; for Ki: read-out: Ki
Caspase-1 = target: T1, Caspase-1 (Homo sapiens, UniProt P29466); set-up: species or system Escherichia coli;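 note: Caspase-1 enzyme inhibition assay with a peptide substrate; in other assays of this panel Not Active means under 50% inhibition at 10 µM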
T1 sequence (P29466 whole entry): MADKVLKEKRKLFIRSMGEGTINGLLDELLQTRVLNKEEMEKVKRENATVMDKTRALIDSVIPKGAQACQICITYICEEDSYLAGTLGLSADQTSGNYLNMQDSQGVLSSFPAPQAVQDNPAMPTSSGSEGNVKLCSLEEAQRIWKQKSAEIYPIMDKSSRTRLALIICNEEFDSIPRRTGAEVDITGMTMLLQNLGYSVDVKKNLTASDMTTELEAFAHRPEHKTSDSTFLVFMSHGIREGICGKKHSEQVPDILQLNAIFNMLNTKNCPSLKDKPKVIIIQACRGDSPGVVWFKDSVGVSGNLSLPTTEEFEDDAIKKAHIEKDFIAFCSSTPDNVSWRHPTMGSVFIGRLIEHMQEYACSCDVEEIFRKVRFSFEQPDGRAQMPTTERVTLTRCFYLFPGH

[2] = target: T2, Angiotensin-converting enzyme (Oryctolagus cuniculus, UniProt P12822); type: tissue-based, Lung;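 note: enzymatic inhibition of angiotensin-converting enzyme measured with FAPGG as the substrate; in other assays of this panel Not Active means under 50% inhibition at 10 µM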
T2 sequence (P12822 whole entry): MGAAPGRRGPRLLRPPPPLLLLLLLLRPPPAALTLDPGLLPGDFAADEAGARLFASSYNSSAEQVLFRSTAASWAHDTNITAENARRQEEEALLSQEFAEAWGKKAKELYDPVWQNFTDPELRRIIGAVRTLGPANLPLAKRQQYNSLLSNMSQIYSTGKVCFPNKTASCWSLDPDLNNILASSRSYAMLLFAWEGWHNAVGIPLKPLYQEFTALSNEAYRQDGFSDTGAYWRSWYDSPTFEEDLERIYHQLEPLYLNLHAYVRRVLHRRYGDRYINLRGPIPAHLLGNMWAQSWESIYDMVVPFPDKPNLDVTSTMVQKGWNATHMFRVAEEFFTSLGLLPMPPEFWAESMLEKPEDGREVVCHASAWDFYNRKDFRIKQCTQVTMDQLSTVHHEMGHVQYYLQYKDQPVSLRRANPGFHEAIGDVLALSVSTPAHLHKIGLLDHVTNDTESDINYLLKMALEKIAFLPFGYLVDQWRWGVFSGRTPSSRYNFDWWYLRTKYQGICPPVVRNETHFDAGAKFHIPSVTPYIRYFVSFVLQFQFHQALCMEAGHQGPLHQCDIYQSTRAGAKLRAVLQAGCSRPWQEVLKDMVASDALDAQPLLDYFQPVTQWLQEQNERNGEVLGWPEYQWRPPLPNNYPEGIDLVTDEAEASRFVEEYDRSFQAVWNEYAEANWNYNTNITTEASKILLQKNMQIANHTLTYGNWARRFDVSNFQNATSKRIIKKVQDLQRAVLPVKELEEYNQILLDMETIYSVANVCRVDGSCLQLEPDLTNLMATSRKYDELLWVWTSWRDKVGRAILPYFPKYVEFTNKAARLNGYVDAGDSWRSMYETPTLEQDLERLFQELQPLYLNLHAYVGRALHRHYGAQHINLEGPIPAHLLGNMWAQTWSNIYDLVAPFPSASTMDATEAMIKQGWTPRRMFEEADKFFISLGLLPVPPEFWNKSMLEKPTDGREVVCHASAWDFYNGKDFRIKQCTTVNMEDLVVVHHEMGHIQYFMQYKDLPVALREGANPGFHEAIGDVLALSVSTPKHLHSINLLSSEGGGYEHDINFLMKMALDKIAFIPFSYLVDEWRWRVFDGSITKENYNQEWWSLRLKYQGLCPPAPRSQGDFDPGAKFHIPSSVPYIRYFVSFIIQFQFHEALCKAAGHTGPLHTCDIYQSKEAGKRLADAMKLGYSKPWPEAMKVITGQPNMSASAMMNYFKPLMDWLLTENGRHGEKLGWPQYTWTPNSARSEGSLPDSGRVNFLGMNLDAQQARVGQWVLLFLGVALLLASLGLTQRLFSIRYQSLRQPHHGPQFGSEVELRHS

[3] = target: Voltage-gated inwardly rectifying potassium channel KCNH2 (Homo sapiens, UniProt Q12809); details: hek293; note: in other assays of this panel Not Active means under 50% inhibition at 10 µM
[4] = target: T3, 3-hydroxy-3-methylglutaryl-coenzyme A reductase (Homo sapiens, UniProt P04035); set-up: species or system Escherichia coli
T3 sequence (P04035 whole entry): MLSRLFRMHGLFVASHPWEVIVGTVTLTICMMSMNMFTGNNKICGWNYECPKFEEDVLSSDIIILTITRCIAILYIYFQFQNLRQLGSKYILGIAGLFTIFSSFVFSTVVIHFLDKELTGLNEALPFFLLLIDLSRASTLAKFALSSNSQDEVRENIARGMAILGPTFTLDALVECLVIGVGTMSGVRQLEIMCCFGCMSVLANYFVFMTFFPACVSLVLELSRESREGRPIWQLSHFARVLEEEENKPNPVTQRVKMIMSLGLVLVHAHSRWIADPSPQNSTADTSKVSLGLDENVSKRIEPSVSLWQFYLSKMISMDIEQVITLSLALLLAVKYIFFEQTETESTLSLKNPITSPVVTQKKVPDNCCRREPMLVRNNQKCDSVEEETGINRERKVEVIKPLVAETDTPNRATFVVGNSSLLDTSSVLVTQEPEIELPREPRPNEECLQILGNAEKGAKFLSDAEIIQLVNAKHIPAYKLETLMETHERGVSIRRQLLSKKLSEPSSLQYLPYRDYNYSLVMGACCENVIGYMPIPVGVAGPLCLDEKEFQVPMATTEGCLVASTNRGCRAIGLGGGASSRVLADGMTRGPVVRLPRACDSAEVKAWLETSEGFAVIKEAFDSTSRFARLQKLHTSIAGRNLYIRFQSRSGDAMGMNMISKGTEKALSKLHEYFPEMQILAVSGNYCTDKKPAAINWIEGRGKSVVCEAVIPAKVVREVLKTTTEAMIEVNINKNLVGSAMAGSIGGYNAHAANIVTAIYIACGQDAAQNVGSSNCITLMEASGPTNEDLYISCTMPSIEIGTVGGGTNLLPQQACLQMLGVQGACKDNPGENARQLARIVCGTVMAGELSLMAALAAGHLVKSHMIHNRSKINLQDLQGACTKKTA

[5] = target: Vascular endothelial growth factor receptor 1 (Homo sapiens, UniProt P17948); type: cell-based; details: huvec; note: in other assays of this panel Not Active means under 50% inhibition at 10 µM
Vascular endothelial growth factor receptor 1, sequence (P17948 whole entry): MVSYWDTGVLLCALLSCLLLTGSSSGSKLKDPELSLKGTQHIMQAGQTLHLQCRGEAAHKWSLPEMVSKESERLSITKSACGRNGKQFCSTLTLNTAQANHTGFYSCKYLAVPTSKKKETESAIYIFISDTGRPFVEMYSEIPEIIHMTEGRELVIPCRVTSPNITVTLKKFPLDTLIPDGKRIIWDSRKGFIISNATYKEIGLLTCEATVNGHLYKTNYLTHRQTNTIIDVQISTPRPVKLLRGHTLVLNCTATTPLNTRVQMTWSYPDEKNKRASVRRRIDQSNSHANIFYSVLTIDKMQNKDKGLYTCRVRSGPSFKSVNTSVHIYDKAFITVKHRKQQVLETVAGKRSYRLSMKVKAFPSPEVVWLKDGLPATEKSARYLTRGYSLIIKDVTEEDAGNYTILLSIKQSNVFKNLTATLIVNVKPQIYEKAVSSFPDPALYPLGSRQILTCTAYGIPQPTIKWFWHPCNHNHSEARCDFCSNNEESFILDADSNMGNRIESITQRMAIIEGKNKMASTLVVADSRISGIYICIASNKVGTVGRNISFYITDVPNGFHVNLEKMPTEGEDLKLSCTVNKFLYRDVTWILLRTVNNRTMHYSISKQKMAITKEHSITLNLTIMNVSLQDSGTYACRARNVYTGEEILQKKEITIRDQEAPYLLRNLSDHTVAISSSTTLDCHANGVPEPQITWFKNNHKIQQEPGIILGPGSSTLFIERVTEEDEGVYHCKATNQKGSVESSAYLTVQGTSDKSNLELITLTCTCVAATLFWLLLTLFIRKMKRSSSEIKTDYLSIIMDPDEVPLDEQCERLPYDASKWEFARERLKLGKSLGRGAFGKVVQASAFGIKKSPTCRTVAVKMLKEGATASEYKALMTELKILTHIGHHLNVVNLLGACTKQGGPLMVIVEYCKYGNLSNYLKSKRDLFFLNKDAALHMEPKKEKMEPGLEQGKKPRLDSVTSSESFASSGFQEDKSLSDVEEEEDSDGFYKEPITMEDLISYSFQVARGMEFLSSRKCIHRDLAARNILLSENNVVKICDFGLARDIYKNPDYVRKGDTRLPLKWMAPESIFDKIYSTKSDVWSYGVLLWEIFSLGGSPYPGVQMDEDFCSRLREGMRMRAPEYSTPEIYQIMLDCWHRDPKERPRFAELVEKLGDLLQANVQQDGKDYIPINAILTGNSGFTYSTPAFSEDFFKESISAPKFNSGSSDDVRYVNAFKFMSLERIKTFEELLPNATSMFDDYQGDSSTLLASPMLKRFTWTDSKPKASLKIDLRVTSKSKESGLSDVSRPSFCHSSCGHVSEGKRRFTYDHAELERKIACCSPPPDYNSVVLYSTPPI

Sigma non-opioid intracellular receptor 1, sequence (Q99720 whole entry): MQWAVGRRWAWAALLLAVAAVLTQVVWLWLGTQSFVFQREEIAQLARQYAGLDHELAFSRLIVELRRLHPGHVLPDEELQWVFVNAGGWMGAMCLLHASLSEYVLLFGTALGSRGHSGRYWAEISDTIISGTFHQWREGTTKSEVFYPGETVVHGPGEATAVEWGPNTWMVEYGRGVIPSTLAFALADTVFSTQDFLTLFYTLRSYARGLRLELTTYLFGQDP
Voltage-gated inwardly rectifying potassium channel KCNH2, sequence (Q12809 whole entry): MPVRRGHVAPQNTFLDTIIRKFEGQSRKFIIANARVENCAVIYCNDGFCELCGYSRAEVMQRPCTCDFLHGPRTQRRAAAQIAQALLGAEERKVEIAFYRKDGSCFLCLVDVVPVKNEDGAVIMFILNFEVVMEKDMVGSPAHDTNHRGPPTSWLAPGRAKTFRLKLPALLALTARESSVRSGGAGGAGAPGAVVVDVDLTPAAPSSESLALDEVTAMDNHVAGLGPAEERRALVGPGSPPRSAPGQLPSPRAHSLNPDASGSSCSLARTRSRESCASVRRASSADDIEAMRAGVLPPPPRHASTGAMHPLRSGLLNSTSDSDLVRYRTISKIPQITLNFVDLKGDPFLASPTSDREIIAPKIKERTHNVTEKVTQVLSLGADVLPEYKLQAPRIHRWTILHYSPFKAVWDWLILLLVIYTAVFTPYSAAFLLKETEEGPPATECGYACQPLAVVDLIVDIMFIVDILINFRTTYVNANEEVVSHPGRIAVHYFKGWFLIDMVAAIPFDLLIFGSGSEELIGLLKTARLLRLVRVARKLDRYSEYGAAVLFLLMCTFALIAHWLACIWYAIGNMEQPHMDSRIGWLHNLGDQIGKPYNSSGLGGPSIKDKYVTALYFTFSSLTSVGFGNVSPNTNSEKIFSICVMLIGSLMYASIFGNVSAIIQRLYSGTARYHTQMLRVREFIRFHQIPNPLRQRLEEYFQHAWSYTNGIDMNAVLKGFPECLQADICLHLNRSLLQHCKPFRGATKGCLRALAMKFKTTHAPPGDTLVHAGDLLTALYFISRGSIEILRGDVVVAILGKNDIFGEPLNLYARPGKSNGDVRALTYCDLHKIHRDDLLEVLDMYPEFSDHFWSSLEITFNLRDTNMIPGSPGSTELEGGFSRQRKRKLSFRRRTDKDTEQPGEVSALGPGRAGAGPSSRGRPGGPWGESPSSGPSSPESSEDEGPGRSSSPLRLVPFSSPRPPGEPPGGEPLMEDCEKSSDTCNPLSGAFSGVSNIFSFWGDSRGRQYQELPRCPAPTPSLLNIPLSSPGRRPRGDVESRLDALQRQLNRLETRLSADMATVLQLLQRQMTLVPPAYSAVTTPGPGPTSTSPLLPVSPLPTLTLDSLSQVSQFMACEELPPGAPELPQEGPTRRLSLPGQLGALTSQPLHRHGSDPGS

SMILES	IC50 (Glycine receptor)	IC50 ([1]; jurkat)	IC50 (Caspase-1)	IC50 [2]	IC50 [3]	Ki [3]	IC50 [4]	IC50 [5]	IC50 ([1]; read-out: IC50)	Ki [1]
CCCCC(=O)N(Cc1ccc(-c2ccccc2-c2nnn[nH]2)cc1)[C@H](C(=O)O)C(C)C	Not Active	Not Active	Not Active	Not Active	Not Active	Not Active	Not Active	Not Active	–	–
O=C(O)COc1ccc(C(=O)c2cccs2)c(Cl)c1Cl	Not Active	Not Active	Not Active	Not Active	Not Active	Not Active	Not Active	Not Active	–	–
CN1[C@@H]2CC[C@H]1C[C@@H](OC(c1ccccc1)c1ccccc1)C2 [BENZTROPINE]	Not Active	–	Not Active	Not Active	Not Active	Not Active	Not Active	Not Active	–	–
C[C@@](Cc1ccc(O)c(O)c1)(NN)C(=O)O.O [CARBIDOPA]	Not Active	Not Active	Not Active	Not Active	Not Active	Not Active	Not Active	Not Active	–	–
CN1CCN(C2=Nc3cc(Cl)ccc3Nc3ccccc32)CC1 [CLOZAPINE]	Not Active	Not Active	Not Active	Not Active	–	–	Not Active	Not Active	–	–
CC(C)NC[C@@H](O)COc1cccc2ccccc12 [DEXPROPRANOLOL]	Not Active	–	Not Active	Not Active	Not Active	Not Active	Not Active	Not Active	3970 nM	1670 nM
CC(C)NC[C@H](O)COc1cccc2ccccc12 [LEVOPROPRANOLOL]	Not Active	–	Not Active	Not Active	Not Active	Not Active	Not Active	Not Active	6660 nM	2800 nM
O=C(O)CCCCC1CCSS1 (stereo not drawn) [LIPOIC ACID, ALPHA]	Not Active	Not Active	Not Active	Not Active	Not Active	Not Active	Not Active	Not Active	–	–
CN(C)C(=O)C(CCN1CCC(O)(c2ccc(Cl)cc2)CC1)(c1ccccc1)c1ccccc1 [LOPERAMIDE]	Not Active	–	Not Active	Not Active	Not Active	Not Active	Not Active	Not Active	628 nM	264 nM
Clc1ccc(COC(Cn2ccnc2)c2ccc(Cl)cc2Cl)c(Cl)c1 (stereo not drawn) [MICONAZOLE]	Not Active	Not Active	Not Active	Not Active	Not Active	Not Active	Not Active	Not Active	–	–
Oc1ccc2c3c1O[C@H]1[C@@H](O)CC[C@@]4(O)[C@@H](C2)N(CC2CCC2)CC[C@]314 [NALBUPHINE]	Not Active	Not Active	Not Active	Not Active	Not Active	Not Active	Not Active	Not Active	–	–
OCCOCCN1CCN(C2=Nc3ccccc3Sc3ccccc32)CC1 [QUETIAPINE]	Not Active	–	Not Active	Not Active	–	–	Not Active	Not Active	2290 nM	964 nM
C[S+]([O-])c1ccc(-c2nc(-c3ccncc3)c(-c3ccc(F)cc3)[nH]2)cc1 (stereo not drawn) [SB-203580]	Not Active	Not Active	Not Active	Not Active	–	–	Not Active	–	–	–
O=C1C[C@@H]2OCC=C3CN4CC[C@]56c7ccccc7N1[C@H]5[C@H]2[C@H]3C[C@H]46 [STRYCHNINE]	–	Not Active	Not Active	Not Active	Not Active	Not Active	Not Active	Not Active	–	–
CN1CCN(CCCN2c3ccccc3Sc3ccc(C(F)(F)F)cc32)CC1 [TRIFLUOPERAZINE]	Not Active	Not Active	Not Active	Not Active	–	–	Not Active	Not Active	–	–
